# Results reported in the supplement of paper PMC10307832.
# Columns and labels:
# Assay in all cases: relative viability (nuclei count vs DMSO), 5 days (fraction); higher = more cells survive
# [1] = compound: C1CNCCC1C2=CC(=NN2)C3=CC=NC=C3 + COc1cccc2cc(-c3nc([C@H]4CC[C@H](C(=O)O)CC4)n4ncnc(N)c34)[nH]c12 [OSI-027] (partner 0.5 µM)
# Summary of the method: (§1)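 Lung cancer cell lines in 1536-well plates were dosed by pin tool the day after seeding, either with one drug alone or with a fixed anchor-drug dose plus five library-drug doses (not always all listed) in √10 steps. After 5 days, cells were fixed and their nuclei stained in one step (final 0.05% Triton X-100, 1% formaldehyde, 1 ug/ml Hoechst), then counted on 4× images. Relative viability is the nuclei count in treated wells divided by that in vehicle wells. Values are medians of duplicate plates.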
# [2] = compound: C[C@@H](N)c1ccc(C(=O)Nc2ccnc3[nH]ccc23)cc1 + CC(=O)Nc1cccc(-n2c(=O)n(C3CC3)c(=O)c3c(Nc4ccc(I)cc4F)n(C)c(=O)c(C)c32)c1 [Trametinib] (partner 0.02 µM)
# Summary of the method: as §1
# [3] = compound: C[C@@H](N)c1ccc(C(=O)Nc2ccnc3[nH]ccc23)cc1 + N=C(N)NC(=N)NCCc1ccccc1 [Phenformin] (partner 250 µM)
# Summary of the method: as §1
# [4] = compound: C1CNCCC1C2=CC(=NN2)C3=CC=NC=C3 + Cc1nc(Nc2ncc(C(=O)Nc3c(C)cccc3Cl)s2)cc(N2CCN(CCO)CC2)n1 [Dasatinib] (partner 0.075 µM)
# Summary of the method: as §1
Cell Line,relative viability ([1]; first compound 0.08 µM),relative viability ([1]; first compound 0.8 µM),relative viability ([1]; first compound 2.53 µM),relative viability ([1]; first compound 8 µM),relative viability ([2]; first compound 0.04 µM),relative viability ([2]; first compound 0.1265 µM),relative viability ([2]; first compound 0.4 µM),relative viability ([2]; first compound 1.265 µM),relative viability ([2]; first compound 4 µM),relative viability ([3]; first compound 0.04 µM),relative viability ([3]; first compound 0.1265 µM),relative viability ([3]; first compound 0.4 µM),relative viability ([3]; first compound 4 µM),relative viability ([4]; first compound 0.08 µM),relative viability ([4]; first compound 0.8 µM),relative viability ([4]; first compound 2.53 µM),relative viability ([4]; first compound 8 µM),relative viability ([3]; first compound 1.265 µM)
A-427,0.463,0.477,0.473,0.499,0.88,0.876,0.953,0.73,0.662,0.287,0.402,0.332,0.284,0.639,0.751,0.731,0.703,
NCI-H647,0.631,0.68,0.66,0.589,0.387,0.47,0.46,0.424,0.385,0.443,0.488,0.516,0.51,0.176,0.169,0.187,0.161,0.476
NCI-H1975,0.703,0.778,0.774,0.777,0.286,0.4,0.449,0.194,0.233,0.359,0.405,0.39,0.255,0.405,0.417,0.492,0.413,0.347
NCI-H358,0.593,0.713,0.834,0.698,0.157,0.133,0.138,0.121,0.139,0.374,0.358,0.314,0.246,0.118,0.16,0.149,0.143,0.32
PC-3 [JPC-3],0.827,0.776,0.835,0.705,0.656,0.695,0.732,0.651,0.549,0.473,0.495,0.477,0.456,0.982,1.1,1.01,0.966,0.474
NCI-H1792,0.74,0.766,0.706,0.749,0.5,0.465,0.597,0.698,0.324,0.286,,0.15,0.357,0.774,0.836,0.781,0.854,0.278
NCI-H596,0.838,0.763,0.784,0.736,0.922,0.826,0.906,0.752,0.759,0.781,0.668,0.804,0.713,0.602,0.562,0.654,0.664,
RERF-LC-KJ,0.537,0.521,0.581,0.576,0.902,0.972,0.971,0.96,0.873,0.417,0.435,0.446,0.425,0.795,0.934,0.893,0.778,0.434
NCI-H322M,0.608,0.532,0.653,0.592,0.625,0.61,0.701,0.617,0.684,0.874,0.886,0.871,0.72,0.24,0.228,0.247,0.282,
COR-L 105,0.694,0.678,0.925,0.664,0.441,0.518,0.449,0.417,0.458,0.446,0.492,0.523,0.377,0.332,0.364,0.382,0.368,0.423
NCI-H1993,0.581,0.533,0.529,0.578,0.607,0.519,,0.569,0.511,0.597,0.501,0.528,0.547,0.538,0.541,0.56,0.667,0.502
NCI-H1437,0.835,0.922,0.896,0.97,0.647,0.572,0.681,0.601,0.638,0.335,0.346,0.35,0.336,0.464,0.381,0.406,0.45,0.324
NCI-H838,0.385,0.423,0.394,0.491,0.261,0.512,0.45,0.289,0.192,0.378,0.527,0.501,0.221,0.308,0.295,0.277,0.3,0.247
NCI-H1666,0.871,0.967,0.794,0.878,0.852,0.903,0.981,0.916,0.926,0.534,0.603,0.651,0.561,0.718,0.941,0.821,0.783,0.631
NCI-H1944,0.41,0.413,0.546,0.423,0.479,0.412,0.467,0.503,0.402,0.157,0.216,0.153,0.138,0.201,0.206,0.231,0.232,0.165
NCI-H2023,0.347,0.48,0.457,0.503,0.607,0.619,0.657,,0.586,0.451,0.482,0.512,0.411,0.48,0.661,0.583,0.567,0.457
NCI-H1755,0.738,,0.754,0.69,0.768,0.752,0.761,0.707,0.644,0.504,0.687,0.657,0.426,0.483,,0.474,0.399,0.525
NCI-H23,0.676,0.655,0.653,0.67,0.422,0.427,0.386,,0.483,0.744,0.798,0.85,0.732,0.826,0.808,0.805,0.908,
